# Test results from patent US5085739A, “Separation of the propyl alcohols from water by azeotropic or extractive distillation” (priority 1991, dated 1992).
# Structures can show the parent of a compound that is named as a salt.
# Tests used:
# [1] = vapor-liquid equilibrium still, isopropanol-water azeotrope with agent; conditions: for Relative Volatility: isopropanol from water, agent in vapor-liquid equilibrium still, water as overhead
# Description: In every case, the starting material was the propanol-water azeotrope. The relative volatilities are listed for each of the agents.
# [2] = vapor-liquid equilibrium still, n-propanol-water azeotrope with agent; conditions: for Relative Volatility: n-propanol from water; for liquid composition, n-propanol / liquid composition, water / vapor composition, n-propanol / vapor composition, water: butoxypropanol four hours, n-amyl acetate 14 hours
# Description: The data in Table 2, 3, 5, 6 and 7 were obtained in a vapor-liquid equilibrium still. In every case, the starting material was the propanol-water azeotrope. The relative volatilities are listed for each of the agents.
# [3] = glass perforated plate rectification column, n-propanol from water; assay type: physicochemical
# Description: A solution comprising 288 grams of n-propanol and 112 grams of water was placed in the stillpot of the perforated plate column. When refluxing began, an extractive agent comprising n-butyl acetate was pumped into the column at a rate of 15/min/ml. The temperature of the extractive agent as it entered the column was 85° C. After establishing the feed rate of the extractive agent, the heat input to the n-propanol-water in the stillpot was adjusted to give a total reflux rate of 40 ml/min. After two hours of operation, the overhead and bottoms samples of approximately two ml. were collected and analysed.
# Two hundred grams of the n-propanol-water azeotrope and 85 grams of n-amyl formate as the azeotrope former were charged to the 7.3 theoretical plate column and refluxed at total reflux for four hours.
# [4] = glass perforated plate rectification column (7.3 theoretical plates), isopropanol from water; assay type: physicochemical; conditions: for Relative Volatility: extractive mode, 2 hrs, 7.3 theoretical plates; for Weight % Isopropanol, Bottoms / Weight % Water, Bottoms / Weight % Isopropanol, Overhead / Weight % Water, Overhead: rectification column
# Description: A solution comprising 175 grams of isopropanol and 25 grams of water was placed in the stillpot of a 7.3 theoretical plate perforated plate column. […] The temperature of the extractive agent as it entered the column was 75° C. After establishing the feed rate of the extractive agent, the heat input to the isopropanol-water in the stillpot was adjusted to give a total reflux rate of 40 ml/min.
# After two hours of operation, the overhead and bottoms samples of approximately two ml. were collected and analysed by gas chromatography.
# [5] = as above; assay type: physicochemical; conditions: azeotropic
# [6] = extractive distn., water as overhead
# [7] = extractive distn., * brings n-propanol out as overhead
compound,measurement,setting,value
"OCCCCCO [1,5-Pentanediol]",Relative Volatility,[1],1.22
same,Relative Volatility,[2]; [6],1.22
"OCCCCCCO [1,6-Hexanediol]",Relative Volatility,"[3]; extractive mode, 2 hrs",1.11
same,"Weight % Water, Bottoms",[3]; rectification column,23.6 Weight %
same,"Weight % n-Propanol, Bottoms",[3]; rectification column,76.4 Weight %
same,"Weight % Water, Overhead","[3]; rectification column, overhead",38.6 Weight %
same,"Weight % n-Propanol, Overhead","[3]; rectification column, overhead",61.4 Weight %
same,Relative Volatility,[2]; [6],1.31
CCCCO [1-Butanol],Relative Volatility,[4],1.20
same,"Weight % Isopropanol, Bottoms",[4],87.9 Weight %
same,"Weight % Water, Bottoms",[4],12.1 Weight %
same,"Weight % Isopropanol, Overhead",[4],65.3 Weight %
same,"Weight % Water, Overhead",[4],34.7 Weight %
CCC(C)O (centres unmarked) [2-Butanol],Relative Volatility,[1],1.36
CCCCCC(C)=O [2-Heptanone],Relative Volatility,[1],1.32
same,Relative Volatility,[2]; [6],1.88
CCCCCCC(C)O (centres unmarked) [2-Octanol],Relative Volatility,[1],1.30
CCCC(C)=O [2-Pentanone],Relative Volatility,[1],1.38
CCCCC(=O)CC [3-Heptanone],Relative Volatility,[2]; azeotropic distn.,4.3
CC(C)CCO [3-Methyl-1-butanol],Relative Volatility,[1],1.54
CC(=O)C(C)C [3-Methyl-2-butanone],Relative Volatility,[1],1.24
CCCCCC(=O)CC [3-Octanone],Relative Volatility,[1],1.22
CC(=O)CC(C)C [4-Methyl-2-pentanone],Relative Volatility,"[3]; extractive mode, 2 hrs",1.45
same,Relative Volatility,[4],1.45
same,"Weight % Isopropanol, Bottoms",[4],82.3 Weight %
same,"Weight % Water, Bottoms",[4],17.7 Weight %
same,"Weight % Isopropanol, Overhead",[4],23.2 Weight %
same,"Weight % Water, Overhead",[4],76.8 Weight %
same,Relative Volatility,[1],1.36
same,Relative Volatility,[2]; azeotropic distn.,1.3
CCCCCOC=O [Amyl Formate],Relative Volatility,"[3]; azeotropic mode, 4 hrs",1.23
same,"Weight % Water, Bottoms",[3]; rectification column,7.3 Weight %
same,"Weight % n-Propanol, Bottoms",[3]; rectification column,25.7 Weight %
same,"Weight % Agent, Bottoms","[3]; rectification column, azeotropic",67.0 Weight %
same,"Weight % Agent, Bottoms","[3]; rectification column, azeotropic, listed as n-amyl formate",67 Weight %
same,"Weight % Water, Overhead","[3]; rectification column, overhead",40.3 Weight %
same,"Weight % n-Propanol, Overhead","[3]; rectification column, overhead",29.9 Weight %
same,"Weight % Agent, Overhead","[3]; rectification column, overhead, azeotropic",29.8 Weight %
COc1ccccc1 [Anisole],Relative Volatility,[1],1.54
same,Relative Volatility,[2]; [6],2.0
N#Cc1ccccc1 [Benzonitrile],Relative Volatility,[2]; azeotropic distn.,1.5
CCCCOC(=O)c1ccccc1 [Butyl benzoate],Relative Volatility,[1],1.36
CCCCOC(=O)CCC [Butyl butyrate],Relative Volatility,[1],1.39
OC1CCCCCCCCCCC1 [Cyclododecanol],Relative Volatility,[2]; [6],1.43
CCOCCOCCOC(C)=O [Diethylene glycol ethyl ether acetate],Relative Volatility,[2]; [6],1.3
OCCOCCO [Diethylene glycol],Relative Volatility,[1],1.80
CCCC(=O)OCC [Ethyl butyrate],Relative Volatility,[1],1.46
O=C1OCCO1 [Ethylene carbonate],Relative Volatility,[2]; [7],1.3
CCOCCOC(C)=O [Ethylene glycol ethyl ether acetate],Relative Volatility,[2]; [6],1.37
COCCO [Ethylene glycol methyl ether],Relative Volatility,[1],1.60
OCCO [Ethylene glycol],Relative Volatility,[2]; [7],1.7
CCCCCCOC(C)=O [Hexyl acetate],Relative Volatility,[1],1.31
same,Relative Volatility,[2]; azeotropic distn.,3.4
CCCCCCO [Hexyl alcohol],Relative Volatility,[1],1.32
same,Relative Volatility,[2]; [6],1.44
CC(=O)OCC(C)C [Isobutyl acetate],"Weight % Water, Bottoms",[3]; rectification column,58.8 Weight %
same,"Weight % n-Propanol, Bottoms",[3]; rectification column,41.2 Weight %
same,"Weight % Water, Overhead","[3]; rectification column, overhead",26.1 Weight %
same,"Weight % n-Propanol, Overhead","[3]; rectification column, overhead",73.9 Weight %
CCCC(=O)OCC(C)C [Isobutyl butyrate],Relative Volatility,[2]; azeotropic distn.,1.2
CC(C)COC(=O)C(C)C [Isobutyl isobutyrate],Relative Volatility,[1],1.61
CC(C)CCCCCCCO [Isodecyl alcohol],Relative Volatility,[2]; [6],1.30
CC(=O)C=C(C)C [Mesityl oxide],Relative Volatility,[1],1.47
same,Relative Volatility,[2]; azeotropic distn.,1.2
COC(=O)c1ccccc1 [Methyl benzoate],Relative Volatility,[1],1.50
same,Relative Volatility,[2]; [6],1.70
CC(=O)CCC(C)C [Methyl isoamyl ketone],Relative Volatility,[1],1.32
O=[N+]([O-])c1ccccc1 [Nitrobenzene],Relative Volatility,[1],1.32
same,Relative Volatility,[2]; [6],1.21
CCC(=O)c1ccccc1 [Propiophenone],Relative Volatility,[1],1.31
CCCOCC(C)O (centres unmarked) [Propoxypropanol],Relative Volatility,"[3]; extractive mode, 2 hrs",1.21
same,"Weight % Water, Bottoms",[3]; rectification column,30 Weight %
same,"Weight % n-Propanol, Bottoms",[3]; rectification column,70 Weight %
same,"Weight % Water, Overhead","[3]; rectification column, overhead",63.5 Weight %
same,"Weight % n-Propanol, Overhead","[3]; rectification column, overhead",36.5 Weight %
CCCOC(=O)CCC [Propyl butyrate],Relative Volatility,[1],1.72
same,"liquid composition, isopropanol",[1]; refluxed six hours,85.3%
same,"liquid composition, water",[1]; refluxed six hours,14.7%
same,"vapor composition, isopropanol",[1]; refluxed six hours,77.1%
same,"vapor composition, water",[1]; refluxed six hours,22.9%
same,Relative Volatility,[2]; azeotropic distn.,3.6
CC(C)COCC(C)O (centres unmarked) [Propylene glycol isobutyl ether],Relative Volatility,[1],1.29
CCCCCCCCCCCO [Undecyl alcohol],Relative Volatility,[2]; [6],1.39
C=COCCCC [Vinyl n-butyl ether],"Weight % Isopropanol, Bottoms",[4],80.3 Weight %
same,"Weight % Water, Bottoms",[4],5.1 Weight %
same,"Weight % Isopropanol, Overhead",[4],28.5 Weight %
same,"Weight % Water, Overhead",[4],14.5 Weight %
same,"Weight % Agent, Bottoms",[5]; bottoms,14.6 Weight %
same,"Weight % Agent, Overhead",[5]; overhead,57.0 Weight %
CC(O)c1ccccc1 (stereo not drawn) [alpha-Methyl benzyl alcohol],Relative Volatility,[2]; [6],1.48
CCCCCOC(C)=O [n-Amyl acetate],Relative Volatility,[1],1.30
same,"liquid composition, n-propanol",[2],67.3%
same,"liquid composition, water",[2],32.7%
same,"vapor composition, n-propanol",[2],58%
same,"vapor composition, water",[2],42%
same,Relative Volatility,[2]; azeotropic distn.,1.5
CCCCOC(C)=O [n-Butyl acetate],Relative Volatility,"[3]; extractive mode, 2 hrs, * n-propanol comes off as overhead",1.32
same,"Weight % Water, Bottoms",[3]; rectification column,73.7 Weight %
same,"Weight % n-Propanol, Bottoms",[3]; rectification column,26.3 Weight %
same,"Weight % Water, Overhead","[3]; rectification column, overhead",27.7 Weight %
same,"Weight % n-Propanol, Overhead","[3]; rectification column, overhead",72.3 Weight %
same,Relative Volatility,[1],1.28
same,Relative Volatility,[2]; [7],1.7
CCCCCCCCCCO [n-Decanol],Relative Volatility,[1],1.38
CCCCCCOC=O [n-Hexyl formate],Relative Volatility,[1],1.52
Butoxypropanol,"Weight % Water, Bottoms",[3]; rectification column,15.9 Weight %
same,"Weight % n-Propanol, Bottoms",[3]; rectification column,84.1 Weight %
same,"Weight % Water, Overhead","[3]; rectification column, overhead",50.1 Weight %
same,"Weight % n-Propanol, Overhead","[3]; rectification column, overhead",49.9 Weight %
same,"liquid composition, n-propanol",[2],77.2%
same,"liquid composition, water",[2],22.8%
same,"vapor composition, n-propanol",[2],60.5%
same,"vapor composition, water",[2],39.5%
